# Assay results as given in the supplement of paper PMC8882468.
# System: HCI-002 (organoid from a triple-negative breast cancer xenograft)
# Test: CTG-3D luminescence at 96 h relative to day-0 seeding control (ratio to day 0); higher = more growth / less cytotoxicity; PDxO 3D drug screen, 96 h, CTG-3D normalised to day-0 seeding control.
# Settings: 0.005 µM; days in culture: 209
row,SMILES,CTG-3D luminescence at 96 h
1,CC(C)(C(=O)NCC(F)(F)C(F)(F)F)C(=O)N[C@@H]1C(=O)Nc2ccccc2-c2ccccc21,2.38
2,C=CC(=O)N1CCC[C@@H](n2nc(-c3ccc(Oc4ccccc4)cc3)c3c(N)ncnc32)C1 [ibrutinib],2.33
3,CNC(=O)c1cccc(-c2ccc3c(N4CCOC[C@@H]4C)nc(N4CCOC[C@@H]4C)nc3n2)c1 [vistusertib],2.32
4,CCN(c1cc(C#CCN2CCOCC2)cc(C(=O)NCc2c(C)cc(C)[nH]c2=O)c1C)[C@H]1CC[C@H](N(C)CCOC)CC1,2.59

# Same assay, conditions: 0.005 µM; days in culture: 227
row,SMILES,CTG-3D luminescence at 96 h
1,CC(C)(C(=O)NCC(F)(F)C(F)(F)F)C(=O)N[C@@H]1C(=O)Nc2ccccc2-c2ccccc21,5.89
2,C=CC(=O)N1CCC[C@@H](n2nc(-c3ccc(Oc4ccccc4)cc3)c3c(N)ncnc32)C1 [ibrutinib],4.64
3,CNC(=O)c1cccc(-c2ccc3c(N4CCOC[C@@H]4C)nc(N4CCOC[C@@H]4C)nc3n2)c1 [vistusertib],5.27
4,CCN(c1cc(C#CCN2CCOCC2)cc(C(=O)NCc2c(C)cc(C)[nH]c2=O)c1C)[C@H]1CC[C@H](N(C)CCOC)CC1,4.63

# Same assay, conditions: 0.1 µM; days in culture: 62
row,SMILES,CTG-3D luminescence at 96 h
1,CC(C)(C(=O)NCC(F)(F)C(F)(F)F)C(=O)N[C@@H]1C(=O)Nc2ccccc2-c2ccccc21,2.74
2,C=CC(=O)N1CCC[C@@H](n2nc(-c3ccc(Oc4ccccc4)cc3)c3c(N)ncnc32)C1 [ibrutinib],2.77
3,CNC(=O)c1cccc(-c2ccc3c(N4CCOC[C@@H]4C)nc(N4CCOC[C@@H]4C)nc3n2)c1 [vistusertib],2.32
4,CCN(c1cc(C#CCN2CCOCC2)cc(C(=O)NCc2c(C)cc(C)[nH]c2=O)c1C)[C@H]1CC[C@H](N(C)CCOC)CC1,3.68

# Same assay, conditions: 0.1 µM; days in culture: 82
row,SMILES,CTG-3D luminescence at 96 h
1,CC(C)(C(=O)NCC(F)(F)C(F)(F)F)C(=O)N[C@@H]1C(=O)Nc2ccccc2-c2ccccc21,2.94
2,C=CC(=O)N1CCC[C@@H](n2nc(-c3ccc(Oc4ccccc4)cc3)c3c(N)ncnc32)C1 [ibrutinib],2.38
3,CNC(=O)c1cccc(-c2ccc3c(N4CCOC[C@@H]4C)nc(N4CCOC[C@@H]4C)nc3n2)c1 [vistusertib],2.33
4,CCN(c1cc(C#CCN2CCOCC2)cc(C(=O)NCc2c(C)cc(C)[nH]c2=O)c1C)[C@H]1CC[C@H](N(C)CCOC)CC1,3.77

# Same assay, conditions: 0.1 µM; days in culture: 91
row,SMILES,CTG-3D luminescence at 96 h
1,CC(C)(C(=O)NCC(F)(F)C(F)(F)F)C(=O)N[C@@H]1C(=O)Nc2ccccc2-c2ccccc21,3.91
2,C=CC(=O)N1CCC[C@@H](n2nc(-c3ccc(Oc4ccccc4)cc3)c3c(N)ncnc32)C1 [ibrutinib],3.61
3,CNC(=O)c1cccc(-c2ccc3c(N4CCOC[C@@H]4C)nc(N4CCOC[C@@H]4C)nc3n2)c1 [vistusertib],2.8
4,CCN(c1cc(C#CCN2CCOCC2)cc(C(=O)NCc2c(C)cc(C)[nH]c2=O)c1C)[C@H]1CC[C@H](N(C)CCOC)CC1,2.44

# Same assay, conditions: 0.1 µM; days in culture: 191
row,SMILES,CTG-3D luminescence at 96 h
1,CC(C)(C(=O)NCC(F)(F)C(F)(F)F)C(=O)N[C@@H]1C(=O)Nc2ccccc2-c2ccccc21,2.13
2,C=CC(=O)N1CCC[C@@H](n2nc(-c3ccc(Oc4ccccc4)cc3)c3c(N)ncnc32)C1 [ibrutinib],2.23
3,CNC(=O)c1cccc(-c2ccc3c(N4CCOC[C@@H]4C)nc(N4CCOC[C@@H]4C)nc3n2)c1 [vistusertib],2.32
4,CCN(c1cc(C#CCN2CCOCC2)cc(C(=O)NCc2c(C)cc(C)[nH]c2=O)c1C)[C@H]1CC[C@H](N(C)CCOC)CC1,3.84

# Same assay, conditions: 0.1 µM; days in culture: 209
row,SMILES,CTG-3D luminescence at 96 h
1,CC(C)(C(=O)NCC(F)(F)C(F)(F)F)C(=O)N[C@@H]1C(=O)Nc2ccccc2-c2ccccc21,2.22
2,C=CC(=O)N1CCC[C@@H](n2nc(-c3ccc(Oc4ccccc4)cc3)c3c(N)ncnc32)C1 [ibrutinib],1.87
3,CNC(=O)c1cccc(-c2ccc3c(N4CCOC[C@@H]4C)nc(N4CCOC[C@@H]4C)nc3n2)c1 [vistusertib],2.03
4,CCN(c1cc(C#CCN2CCOCC2)cc(C(=O)NCc2c(C)cc(C)[nH]c2=O)c1C)[C@H]1CC[C@H](N(C)CCOC)CC1,2.63

# Same assay, conditions: 0.1 µM; days in culture: 227
row,SMILES,CTG-3D luminescence at 96 h
1,CC(C)(C(=O)NCC(F)(F)C(F)(F)F)C(=O)N[C@@H]1C(=O)Nc2ccccc2-c2ccccc21,5.45
2,C=CC(=O)N1CCC[C@@H](n2nc(-c3ccc(Oc4ccccc4)cc3)c3c(N)ncnc32)C1 [ibrutinib],4.59
3,CNC(=O)c1cccc(-c2ccc3c(N4CCOC[C@@H]4C)nc(N4CCOC[C@@H]4C)nc3n2)c1 [vistusertib],3.89
4,CCN(c1cc(C#CCN2CCOCC2)cc(C(=O)NCc2c(C)cc(C)[nH]c2=O)c1C)[C@H]1CC[C@H](N(C)CCOC)CC1,5.11

# Same assay, conditions: 1 µM; days in culture: 62
row,SMILES,CTG-3D luminescence at 96 h
1,CC(C)(C(=O)NCC(F)(F)C(F)(F)F)C(=O)N[C@@H]1C(=O)Nc2ccccc2-c2ccccc21,2.12
2,C=CC(=O)N1CCC[C@@H](n2nc(-c3ccc(Oc4ccccc4)cc3)c3c(N)ncnc32)C1 [ibrutinib],1.54
3,CNC(=O)c1cccc(-c2ccc3c(N4CCOC[C@@H]4C)nc(N4CCOC[C@@H]4C)nc3n2)c1 [vistusertib],1.07
4,CCN(c1cc(C#CCN2CCOCC2)cc(C(=O)NCc2c(C)cc(C)[nH]c2=O)c1C)[C@H]1CC[C@H](N(C)CCOC)CC1,3.25

# Same assay, conditions: 1 µM; days in culture: 82
row,SMILES,CTG-3D luminescence at 96 h
1,CC(C)(C(=O)NCC(F)(F)C(F)(F)F)C(=O)N[C@@H]1C(=O)Nc2ccccc2-c2ccccc21,2.61
2,C=CC(=O)N1CCC[C@@H](n2nc(-c3ccc(Oc4ccccc4)cc3)c3c(N)ncnc32)C1 [ibrutinib],1.77
3,CNC(=O)c1cccc(-c2ccc3c(N4CCOC[C@@H]4C)nc(N4CCOC[C@@H]4C)nc3n2)c1 [vistusertib],1.07
4,CCN(c1cc(C#CCN2CCOCC2)cc(C(=O)NCc2c(C)cc(C)[nH]c2=O)c1C)[C@H]1CC[C@H](N(C)CCOC)CC1,3.86

# Same assay, conditions: 1 µM; days in culture: 91
row,SMILES,CTG-3D luminescence at 96 h
1,CC(C)(C(=O)NCC(F)(F)C(F)(F)F)C(=O)N[C@@H]1C(=O)Nc2ccccc2-c2ccccc21,2.99
2,C=CC(=O)N1CCC[C@@H](n2nc(-c3ccc(Oc4ccccc4)cc3)c3c(N)ncnc32)C1 [ibrutinib],2.11
3,CNC(=O)c1cccc(-c2ccc3c(N4CCOC[C@@H]4C)nc(N4CCOC[C@@H]4C)nc3n2)c1 [vistusertib],1.19
4,CCN(c1cc(C#CCN2CCOCC2)cc(C(=O)NCc2c(C)cc(C)[nH]c2=O)c1C)[C@H]1CC[C@H](N(C)CCOC)CC1,2.39

# Same assay, conditions: 1 µM; days in culture: 191
row,SMILES,CTG-3D luminescence at 96 h
1,CC(C)(C(=O)NCC(F)(F)C(F)(F)F)C(=O)N[C@@H]1C(=O)Nc2ccccc2-c2ccccc21,2.48
2,C=CC(=O)N1CCC[C@@H](n2nc(-c3ccc(Oc4ccccc4)cc3)c3c(N)ncnc32)C1 [ibrutinib],1.69
3,CNC(=O)c1cccc(-c2ccc3c(N4CCOC[C@@H]4C)nc(N4CCOC[C@@H]4C)nc3n2)c1 [vistusertib],1.41
4,CCN(c1cc(C#CCN2CCOCC2)cc(C(=O)NCc2c(C)cc(C)[nH]c2=O)c1C)[C@H]1CC[C@H](N(C)CCOC)CC1,3.37

# Same assay, conditions: 1 µM; days in culture: 209
row,SMILES,CTG-3D luminescence at 96 h
1,CC(C)(C(=O)NCC(F)(F)C(F)(F)F)C(=O)N[C@@H]1C(=O)Nc2ccccc2-c2ccccc21,2.25
2,C=CC(=O)N1CCC[C@@H](n2nc(-c3ccc(Oc4ccccc4)cc3)c3c(N)ncnc32)C1 [ibrutinib],1.63
3,CNC(=O)c1cccc(-c2ccc3c(N4CCOC[C@@H]4C)nc(N4CCOC[C@@H]4C)nc3n2)c1 [vistusertib],0.917
4,CCN(c1cc(C#CCN2CCOCC2)cc(C(=O)NCc2c(C)cc(C)[nH]c2=O)c1C)[C@H]1CC[C@H](N(C)CCOC)CC1,2.93

# Same assay, conditions: 1 µM; days in culture: 227
row,SMILES,CTG-3D luminescence at 96 h
1,CC(C)(C(=O)NCC(F)(F)C(F)(F)F)C(=O)N[C@@H]1C(=O)Nc2ccccc2-c2ccccc21,4.95
2,C=CC(=O)N1CCC[C@@H](n2nc(-c3ccc(Oc4ccccc4)cc3)c3c(N)ncnc32)C1 [ibrutinib],2.61
3,CNC(=O)c1cccc(-c2ccc3c(N4CCOC[C@@H]4C)nc(N4CCOC[C@@H]4C)nc3n2)c1 [vistusertib],1.39
4,CCN(c1cc(C#CCN2CCOCC2)cc(C(=O)NCc2c(C)cc(C)[nH]c2=O)c1C)[C@H]1CC[C@H](N(C)CCOC)CC1,4.67

# Same assay, conditions: 10 µM; days in culture: 62
row,SMILES,CTG-3D luminescence at 96 h
1,CC(C)(C(=O)NCC(F)(F)C(F)(F)F)C(=O)N[C@@H]1C(=O)Nc2ccccc2-c2ccccc21,3.01
2,C=CC(=O)N1CCC[C@@H](n2nc(-c3ccc(Oc4ccccc4)cc3)c3c(N)ncnc32)C1 [ibrutinib],1.45
3,CNC(=O)c1cccc(-c2ccc3c(N4CCOC[C@@H]4C)nc(N4CCOC[C@@H]4C)nc3n2)c1 [vistusertib],0.702
4,CCN(c1cc(C#CCN2CCOCC2)cc(C(=O)NCc2c(C)cc(C)[nH]c2=O)c1C)[C@H]1CC[C@H](N(C)CCOC)CC1,3.56

# Same assay, conditions: 10 µM; days in culture: 82
row,SMILES,CTG-3D luminescence at 96 h
1,CC(C)(C(=O)NCC(F)(F)C(F)(F)F)C(=O)N[C@@H]1C(=O)Nc2ccccc2-c2ccccc21,3.03
2,C=CC(=O)N1CCC[C@@H](n2nc(-c3ccc(Oc4ccccc4)cc3)c3c(N)ncnc32)C1 [ibrutinib],1.32
3,CNC(=O)c1cccc(-c2ccc3c(N4CCOC[C@@H]4C)nc(N4CCOC[C@@H]4C)nc3n2)c1 [vistusertib],0.582
4,CCN(c1cc(C#CCN2CCOCC2)cc(C(=O)NCc2c(C)cc(C)[nH]c2=O)c1C)[C@H]1CC[C@H](N(C)CCOC)CC1,3.46
